Data set [1] is described as follows: Metabolic stability in human hepatic microsome. The following applies: microsomes. The class given is in vitro ADME.
A short description of data set [2]: PAMPA (parallel artificial membrane permeability assay). The following applies: PAMPA. The class given is in vitro ADME. A digest of the protocol:
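Artificial membrane was 10% (w/v) egg lecithin plus 0.5% (w/v) cholesterol in dodecane on a PVDF filter. A 10 mM DMSO stock was added at 0.5% (v/v) to donor buffer (50 mM MOPSO, pH 6.5, 5.0% glycocholic acid). After 18 h at 37 °C, LC/MS or LC/UV gave donor and acceptor levels for Pe.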
(PAMPA measures passive passage across an artificial lipid membrane.)

Setting [3] is: pH 7.4, human hepatic microsome, NADPH(+), read-out: CL NADPH(+).
[4] abbreviates: membrane permeation rate (Pe), 50 mM MOPSO buffer pH 6.5 with 5.0% glycocholic acid, 37° C., 18 hours, read-out: iPAMPA Pe.

Read-outs that look alike come from different tables or passages of the source. Starred links: 1 amine or outer side, 2 acyl side, 3 side chain; linkers in the order of their positions; H or OH if unused. Positions of bridges follow the written chain, without caps; N, C: chain ends. Non-standard residues stand in square brackets, D forms with d. Residues, ends and D or L forms follow the SMILES beside them. ξ: configuration not given here. *: point of attachment. Phe(3-(CH2)4CO) = O=C([C@H](Cc1cccc(CCCCC(=O)[*:3])c1)N[*:1])[*:2]; Met(O2) = CS(=O)(=O)CC[C@H](N)C(=O)O; NMeF = CN[C@@H](Cc1ccccc1)C(=O)O; NMeI = CC[C@H](C)[C@H](NC)C(=O)O; NMeξIle = CC[C@H](C)C(NC)C(=O)O; NMeL = CN[C@@H](CC(C)C)C(=O)O; NMeV = CN[C@H](C(=O)O)C(C)C; NMeA = CN[C@@H](C)C(=O)O; Piperidide = C1CCN(*)CC1; dNMeA = CN[C@H](C)C(=O)O; β3hA = C[C@H](N)CC(=O)O; ξL = CC(C)CC(N)C(=O)O; Sar = CNCC(=O)O

The values that follow come from patent US9409952B2, “Peptide-compound cyclization method” (Chugai Seiyaku Kabushiki Kaisha, priority 2011, dated 2016).

In the case of `CC[C@H](C)[C@@H]1NC(=O)[C@H](C)N(C)C(=O)C[C@@H](C(=O)N(C)[C@@H](Cc2ccccc2)C(=O)N[C@@H](C)C(=O)N2CCCCC2)NC(=O)[C@H](CC(C)C)N(C)C(=O)[C@H](CC(C)C)NC(=O)[C@@H]2CCCN2C(=O)CNC(=O)[C@H](CC(C)C)N(C)C(=O)[C@H](Cc2ccccc2)N(C)C(=O)[C@H](Cc2ccccc2)NC(=O)[C@H]([C@@H](C)O)NC1=O` [DP-280] ([NMeA]ITF[NMeF][NMeL]GPL[NMeL]D[NMeF]A-Piperidide; lactam N-11), the microsomal CLint at 1 uM in data set [1] (human, pH 7.4, CL NADPH(+)) was 28 µL/min/mg. This compound returned a Papp at 18 hours, 50 µM in data set [2] (pH 6.5) of 21 ×10⁻⁶ cm/s.
With `CC[C@H](C)[C@H]1C(=O)N[C@@H](Cc2ccccc2)C(=O)N(C)[C@@H](Cc2ccccc2)C(=O)N[C@@H]([C@@H](C)O)C(=O)N2CCC[C@H]2C(=O)N[C@@H](CC(C)C)C(=O)N[C@H](C(=O)N2CCCCC2)Cc2cccc(c2)CCCCC(=O)N[C@@H](CC(C)C)C(=O)N(C)[C@@H](CC(C)C)C(=O)N[C@@H](C)C(=O)N1C` [DP-897] (L[NMeL]A[NMeI]F[NMeF]TPL[Phe(3-(CH2)4CO)]-Piperidide; lactam N-10), the microsomal CLint at 1 uM in data set [1] (setting [3]) is 56 µL/min/mg. In data set [2] (setting [4]), the Papp at 18 hours, 50 µM amounted to 2.4 ×10⁻⁶ cm/s.
The like results for `CC(C)C[C@H]1C(=O)N(C)[C@@H](Cc2ccccc2)C(=O)N(C)[C@@H](CC(C)C)C(=O)N[C@@H]([C@@H](C)O)C(=O)N[C@H](C(=O)N2CCCCC2)CC(=O)N[C@H](C(C)C)C(=O)N(C)[C@@H](C)C(=O)N(C)[C@@H](CC(C)C)C(=O)N[C@@H](CCS(C)(=O)=O)C(=O)N(C)[C@@H](Cc2ccccc2)C(=O)N[C@@H](Cc2ccccc2)C(=O)N1C` [DP-621] ([dV][NMeA][NMeL][Met(O2)][NMeF]F[NMeL][NMeF][NMeL]TD-Piperidide; lactam N-11) were, in that order, 11 µL/min/mg and 21 ×10⁻⁶ cm/s.
Compound `CC(C)C[C@@H]1NC(=O)[C@@H]2CCCN2C(=O)[C@H](Cc2ccccc2)N(C)C(=O)[C@H](C)N(C)C(=O)[C@H]([C@@H](C)O)NC(=O)[C@@H](C(C)C)NC(=O)C[C@@H](C(=O)N2CCCCC2)NC(=O)[C@H](CC(C)C)N(C)C(=O)[C@H](C)N(C)C(=O)[C@H](Cc2ccccc2)NC(=O)[C@H](C(C)C)N(C)C1=O` [DP-146] ([dV]T[NMeA][NMeF]PL[NMeV]F[NMeA][NMeL]D-Piperidide; lactam N-11) gave a microsomal CLint at 1 uM in data set [1] (human, pH 7.4, CL NADPH(+)) of 52 µL/min/mg. In addition, the Papp at 18 hours, 50 µM in data set [2] (pH 6.5) came out at 26 ×10⁻⁶ cm/s.
For `CC[C@H](C)[C@H](NC(=O)[C@H](CC(C)C)N(C)C(=O)[C@H](CC(C)C)NC(=O)[C@H](C)N(C)C(=O)[C@@H]1CC(=O)N[C@@H](C)C(=O)N(C)[C@@H](CC(C)C)C(=O)N[C@@H](C(C)C)C(=O)N[C@@H](C)C(=O)N(C)[C@@H](CC(C)C)C(=O)N(C)[C@@H](CC(C)C)C(=O)N(C)[C@@H](Cc2ccccc2)C(=O)N[C@@H]([C@@H](C)O)C(=O)N(C)[C@@H](Cc2ccccc2)C(=O)N1)C(=O)N1CCCCC1` [DP-945] (A[NMeL]VA[NMeL][NMeL][NMeF]T[NMeF]D[NMeA]L[NMeL]I-Piperidide; lactam N-10), the microsomal CLint at 1 uM in data set [1] (setting [3]) was determined as 28 µL/min/mg. In addition, in data set [2] (setting [4]), the Papp at 18 hours, 50 µM turned out to be 0.1 ×10⁻⁶ cm/s.
Turning to `CC[C@H](C)[C@H]1C(=O)NCC(=O)N(C)[C@@H](Cc2ccccc2)C(=O)N[C@@H]([C@@H](C)O)C(=O)N(C)[C@@H](CC(C)C)C(=O)N[C@@H](CC(C)C)C(=O)N[C@@H](C)CC(=O)N(C)[C@H](C)C(=O)N(C)[C@@H](CC(C)C)C(=O)N[C@@H](Cc2ccccc2)C(=O)N(C)[C@@H](CC(C)C)C(=O)N[C@@H](C(C)C)C(=O)N1C` [DP-757] (cyclo(F[NMeL]V[NMeI]G[NMeF]T[NMeL]L[β3hA][dNMeA][NMeL])), in data set [1] (human, pH 7.4, CL NADPH(+)), the microsomal CLint at 1 uM amounted to 124 µL/min/mg. In data set [2] (pH 6.5), this compound showed a Papp at 18 hours, 50 µM of 33 ×10⁻⁶ cm/s.
For `CC[C@H](C)[C@@H]1NC(=O)[C@H](CC(C)C)N(C)C(=O)CN(C)C(=O)[C@H]([C@@H](C)O)NC(=O)[C@H](C)N(C)C(=O)C[C@@H](C(=O)N[C@@H](C)C(=O)N2CCC[C@H]2C(=O)N[C@@H](C)C(=O)N2CCCCC2)NC(=O)[C@H](CC(C)C)N(C)C(=O)[C@H](Cc2ccccc2)N(C)C(=O)[C@H](CC(C)C)N(C)C1=O` [DP-662] ([NMeA]T[Sar][NMeL]I[NMeL][NMeF][NMeL]DAPA-Piperidide; lactam N-9), in data set [1] (setting [3]), the microsomal CLint at 1 uM worked out at 101 µL/min/mg. In data set [2] (setting [4]), the Papp at 18 hours, 50 µM worked out at 18 ×10⁻⁶ cm/s.
Consider `CC[C@H](C)C1C(=O)N(C)[C@@H](Cc2ccccc2)C(=O)N[C@H](C(=O)N2CCCCC2)CC(=O)N(C)CC(=O)NC(CC(C)C)C(=O)N(C)[C@@H](Cc2ccccc2)C(=O)N(C)[C@@H](CC(C)C)C(=O)N[C@@H](C)C(=O)N(C)[C@@H](C(C)C)C(=O)N(C)[C@@H](C)C(=O)N[C@@H]([C@@H](C)O)C(=O)N(C)CC(=O)N1C` (stereo partly drawn) [DP-64] ([Sar][ξL][NMeF][NMeL]A[NMeV][NMeA]T[Sar][NMeξIle][NMeF]D-Piperidide; lactam N-12), for which, in data set [1] (human, pH 7.4, CL NADPH(+)), the microsomal CLint at 1 uM was determined as 25 µL/min/mg. The same compound yielded a Papp at 18 hours, 50 µM in data set [2] (pH 6.5) of 24 ×10⁻⁶ cm/s.
The matching figures for `CC[C@H](C)[C@H](NC(=O)[C@H](CC(C)C)NC(=O)[C@H](Cc1ccccc1)NC(=O)[C@@H]1CC(=O)N[C@@H](C)C(=O)N[C@@H]([C@@H](C)CC)C(=O)N(C)[C@@H](C)C(=O)N(C)[C@@H](Cc2ccccc2)C(=O)N[C@@H]([C@@H](C)O)C(=O)N(C)[C@@H](Cc2ccccc2)C(=O)N[C@@H](CC(C)C)C(=O)N2CCC[C@H]2C(=O)N1)C(=O)N[C@@H](C)C(=O)N1CCCCC1` [DP-666] (AI[NMeA][NMeF]T[NMeF]LPDFLIA-Piperidide; lactam N-9): 74 µL/min/mg and 3 ×10⁻⁶ cm/s.
The like results for `CC[C@H](C)[C@H](NC(=O)[C@H](Cc1ccccc1)NC(=O)[C@@H]1CC(=O)N[C@@H](C)C(=O)N[C@@H]([C@@H](C)O)C(=O)N(C)CC(=O)N[C@@H](CC(C)C)C(=O)N2CCC[C@H]2C(=O)N(C)[C@@H](CC(C)C)C(=O)N[C@@H](Cc2ccccc2)C(=O)N(C)[C@@H](Cc2ccccc2)C(=O)N(C)[C@@H](CC(C)C)C(=O)N[C@@H](C)C(=O)N(C)[C@@H](CC(C)C)C(=O)N1)C(=O)N1CCCCC1` [DP-952] (AT[Sar]LP[NMeL]F[NMeF][NMeL]A[NMeL]DFI-Piperidide; lactam N-12) were, in that order, 91 µL/min/mg and 4.4 ×10⁻⁶ cm/s.
The like results for `CC(C)C[C@H]1C(=O)N(C)[C@@H](Cc2ccccc2)C(=O)N(C)[C@@H](C)C(=O)N[C@@H](Cc2ccccc2)C(=O)N[C@H](C(=O)N(C)[C@@H](Cc2ccccc2)C(=O)N[C@@H](C)C(=O)N2CCCCC2)CC(=O)N(C)CC(=O)N[C@@H]([C@@H](C)O)C(=O)N(C)CC(=O)N[C@@H](C(C)C)C(=O)N1C` [DP-316] ([Sar]T[Sar]V[NMeL][NMeF][NMeA]FD[NMeF]A-Piperidide; lactam N-9) were, in that order, 35 µL/min/mg and 12 ×10⁻⁶ cm/s.
For `CC[C@H](C)[C@@H]1NC(=O)[C@H](Cc2ccccc2)N(C)C(=O)[C@H](Cc2ccccc2)NC(=O)[C@H](CC(C)C)N(C)C(=O)[C@H](CC(C)C)NC(=O)[C@H](C)NC(=O)C[C@@H](C(=O)N2CCCCC2)NC(=O)[C@H](CC(C)C)NC(=O)[C@H]([C@@H](C)O)NC(=O)[C@@H]2CCCN2C1=O` [DP-17] (AL[NMeL]F[NMeF]IPTLD-Piperidide; lactam N-10), in data set [1] (human, pH 7.4, CL NADPH(+)), the microsomal CLint at 1 uM is 94 µL/min/mg. In data set [2] (pH 6.5), this compound displayed a Papp at 18 hours, 50 µM of 38 ×10⁻⁶ cm/s.
